From the NIST ThermoML archive (doi:10.1021/je050231r)
Numbers after ± are expanded uncertainties.

Details: Liquid; for mass density: 293.2 K, 101.33 kPa

## BrCCBr [1,2-dibromoethane]
  mass density: 2179.24 ± 2.4 kg/m3
404.6 K
  vapor or sublimation pressure: 101.81 ± 0.62 kPa
405.4 K
  vapor or sublimation pressure: 102.09 ± 0.52 kPa
405.5 K
  vapor or sublimation pressure: 102.11 ± 0.52 kPa
405.8 K
  vapor or sublimation pressure: 101.86 ± 0.98 kPa

## c1ccccc1 [benzene]
  mass density: 876.53 ± 0.19 kg/m3
354.4 K
  vapor or sublimation pressure: 101.77 ± 5.1 kPa

## Brc1ccccc1 [bromobenzene]
  mass density: 1495.23 ± 1.2 kg/m3
429.4 K
  vapor or sublimation pressure: 101.76 ± 2.6 kPa

## Fc1ccccc1 [fluorobenzene]
  mass density: 1022.27 ± 0.27 kg/m3
358.4 K
  vapor or sublimation pressure: 101.94 ± 5.1 kPa

## Cc1ccccc1 [toluene]
  mass density: 866.81 ± 0.28 kg/m3
384.9 K
  vapor or sublimation pressure: 102.09 ± 5.1 kPa
